Here are results for nine compounds from ChEMBL document CHEMBL5376025, “Colorectal anticancer activity of a novel class of triazolic triarylmethane derivatives” (RSC Med Chem, 2024).

Data set [1] relates to L929. The data set can be described thus: Cytotoxicity against mouse L929 cells assessed as reduction in cell viability at 0.78 to 100 uM measured after 24 hrs by MTT colorimetric assay. The class given is toxicity, cell-based. The settings on record: l929, 24 h, dose 0.78-100 µM.
The test system of data set [2] is HT-29. The data set can be described thus: Antiproliferative activity against human HT-29 cells assessed as inhibition of cell growth measured after 48 hrs by MTT assay. Format: functional, cell-based. The note with it: HT-29, 48 h. Background: Tetrazolium assays rely on reduction of a dye to a coloured formazan, in cell work by metabolically active cells.
The test system of data set [3] is HCT-116. The data set can be described thus: Antiproliferative activity against human HCT-116 cells assessed as inhibition of cell growth measured after 48 hrs by MTT assay. Format: functional, cell-based. The note with it: HCT-116, 48 h.
The nature of data set [4]: Cytotoxicity against mouse L929 cells assessed as cell survival at 0.78 to 100 uM measured after 24 hrs by MTT colorimetric assay relative to control. Format: toxicity, cell-based. The settings on record: dose 0.78-100 µM, read-out: Activity.
Data set [5] concerns HT-29. The data set can be described thus: Antiproliferative activity against human HT-29 cells assessed as inhibition of cell growth at 50 uM measured after 48 hrs by MTT assay. Format: functional, cell-based. The settings on record: HT-29, 48 h.
For data set [6], the system named is HCT-116. Kind of data set: Antiproliferative activity against human HCT-116 cells assessed as inhibition of cell growth at 50 uM measured after 48 hrs by MTT assay. The class given is functional, cell-based. The settings on record: HCT-116, 48 h.
Data set [7] deals with HCT-116. The data set can be described thus: Induction of apoptosis in human HCT-116 cells assessed as fold increase in DNA fragmentation measured after 48 hrs by ELISA method. Format: functional. (In general: An ELISA detects its analyte on a solid surface through an enzyme-linked reagent.)
The test system of data set [8] is HCT-116. The data set can be described thus: Induction of apoptosis in human HCT-116 cells assessed as inhibition of capsase-3 expression measured after 24 to 48 hrs by Western blot analysis. The settings on record: time 24-48 hrs. The class given is functional, cell-based. (In western blotting, separated proteins are transferred to a membrane and probed.)
Data set [9] has as its system HCT-116. Kind of data set: Induction of apoptosis in human HCT-116 cells assessed as activation of p38 measured after 6 to 12 hrs by Western blotting analysis. The note with it: time 6-12 hrs. The class given is functional, cell-based.
Data set [10] deals with HCT-116. Kind of data set: Induction of apoptosis in human HCT-116 cells assessed as inhibition of ERK phosphorylation level measured after 12 hrs by Western blotting analysis. The class given is functional, cell-based.
The test system of data set [11] is HT-29. Kind of data set: Induction of apoptosis in human HT-29 cells assessed as fold increase in DNA fragmentation measured after 48 hrs by ELISA method. Format: functional.
The subject of data set [12] is HT-29. The data set can be described thus: Induction of apoptosis in human HT-29 cells assessed as inhibition of PARP expression by Western blot analysis. The settings on record: time 24-48 hrs, TDE = time-dependent effect. The class given is functional, cell-based.
Data set [13] deals with HT-29. Kind of data set: Induction of apoptosis in human HT-29 cells assessed as increase in cleaved caspase-3 expression measured after 24 to 48 hrs by Western blot analysis. The class given is functional, cell-based. The note with it: time 24-48 hrs.
In data set [14] the test system is HCT-116. The data set can be described thus: Induction of apoptosis in human HCT-116 cells assessed as downregulation of Akt phosphorylation level measured after 6 hrs by Western blotting analysis. The class given is functional, cell-based.
Data set [15] concerns HCT-116. The data set can be described thus: Induction of apoptosis in human HCT-116 cells assessed as effect on ERK expression level measured after 6 to 12 hrs by Western blotting analysis. The class given is functional, cell-based. The note with it: time 6-12 hrs.
For data set [16], the system named is HCT-116. Kind of data set: Induction of apoptosis in human HCT-116 cells assessed as increase in cleaved PARP expression measured after 24 to 48 hrs by Western blot analysis. The settings on record: time 24-48 hrs. Format: functional, cell-based.
For data set [17], the system named is HT-29. The data set can be described thus: Induction of apoptosis in human HT-29 cells assessed as increase in cleaved PARP expression measured after 48 hrs by Western blot analysis. Format: functional, cell-based.
Data set [18] concerns HCT-116. Kind of data set: Induction of apoptosis in human HCT-116 cells assessed as decrease in ERK phosphorylation level measured after 6 hrs by Western blotting analysis. The class given is functional, cell-based.
Data set [19] has as its system HCT-116. The data set can be described thus: Induction of apoptosis in human HCT-116 cells assessed as inhibition of PARP expression by Western blot analysis. Format: functional, cell-based. The note with it: time 24-48 hrs, TDE = time-dependent effect.
In data set [20] the test system is HT-29. Kind of data set: Induction of apoptosis in human HT-29 cells assessed as inhibition of capsase-3 expression measured after 24 to 48 hrs by Western blot analysis. Format: functional, cell-based. The note with it: time 24-48 hrs.
The subject of data set [21] is HCT-116. Kind of data set: Induction of apoptosis in human HCT-116 cells assessed as increase in cleaved caspase-3 expression measured after 24 hrs by Western blot analysis. Format: functional, cell-based.
The test system of data set [22] is HCT-116. The data set can be described thus: Induction of apoptosis in human HCT-116 cells assessed as upregulation of Akt expression level measured after 6 to 12 hrs by Western blotting analysis. Format: functional, cell-based. The settings on record: time 6-12 hrs.
In data set [23] the test system is HCT-116. The data set can be described thus: Induction of apoptosis in human HCT-116 cells assessed as increase in cleaved caspase-3 expression measured after 48 hrs by Western blot analysis. Format: functional, cell-based.

Calls of active or inactive are those of the source. The calls are words filed in the database; no cut-off is given here.

Consider `c1ccc(C(c2ccc(OCc3cn(C[C@H]4CCCN4)nn3)cc2)c2ccc(OCc3cn(C[C@H]4CCCN4)nn3)cc2)nc1`, for which the Activity entry in data set [1] was “Non-Toxic”. Further, the IC50 in data set [2] and in data set [3] was over 50 µM in each case. Moreover, in data set [4], the viability at 24 h, up to 100 µM was found to be 100%.

As to `OC[C@@H](O)[C@H]1O[C@H](O)[C@H](O)[C@H]1n1cc(COc2ccc(C(c3ccc(OCc4cn([C@@H]5[C@@H](O)[C@@H](O)O[C@@H]5[C@H](O)CO)nn4)cc3)c3ccccn3)cc2)nn1` (some centres undefined), the IC50 in data set [2] and in [3] was over 50 µM in each case.

Turning to `c1ccc(Cn2cc(COc3ccc(C(c4ccc(OCc5cn(Cc6ccccc6)nn5)cc4)c4ccccn4)cc3)nn2)cc1`, the Activity result in data set [1] was “Non-Toxic”. The concentration for half-maximal inhibition (IC50) in [2] and in data set [3] was over 50 µM each time. The viability at 24 h, up to 100 µM in data set [4] stood at 100%.

For the compound `O[C@@H]1[C@@H](O)[C@@H](O)O[C@H](Cn2cc(COc3ccc(C(c4ccc(OCc5cn(C[C@H]6O[C@H](O)[C@H](O)[C@@H](O)[C@H]6O)nn5)cc4)c4ccccn4)cc3)nn2)[C@@H]1O` (some centres undefined), the half-maximal inhibitory concentration (IC50) in data set [2] and in data set [3] was over 50 µM in each case.

Take `C#CCOc1ccc(C(c2ccc(OCc3cnnn3CCCN)cc2)c2ccccn2)cc1` (centres undefined): the Activity result in data set [1] was “Non-Toxic”. Also, the IC50 in data set [2] and in data set [3] was over 50 µM each time. Also, in data set [4], the viability at 24 h, up to 100 µM amounted to 100%.

For `C#CCOc1ccc(C(c2ccc(OCc3cn(CCN4CCCCC4)nn3)cc2)c2ccccn2)cc1` (centres undefined), the Activity entry in data set [1] was “Non-Toxic”. Also, the IC50 in data set [2] was 24.7 µM; in [3], 45 µM. Also, in data set [4], the viability at 24 h, up to 100 µM was found to be 100%.

Take `[O-][n+]1ccccc1C(c1ccc(OCc2cn(CCN3CCCCC3)nn2)cc1)c1ccc(OCc2cn(CCN3CCCCC3)nn2)cc1`: the IC50 in [2], in [3], in [5] and in data set [6] was over 50 µM each time.

As to `C#CCOc1ccc(C(c2ccc(OCc3cn(Cc4ccccc4)nn3)cc2)c2ccccn2)cc1` (centres undefined), the Activity result in [1] is on record as “Non-Toxic”. For the same compound, the IC50 in data set [2] and in [3] was over 50 µM each time. In addition, the viability at 24 h, up to 100 µM in data set [4] came to 100%.

As for `c1ccc(C(c2ccc(OCc3cn(CCN4CCCCC4)nn3)cc2)c2ccc(OCc3cn(CCN4CCCCC4)nn3)cc2)nc1`, the values for the Activity entry in data set [1], in [12] and in [19] were “Non-Toxic”, “Tde” and “Tde”, respectively. For the same compound, the IC50 in data set [2] turned out to be 11 µM; in data set [3] it was 14.4 µM. For the same compound, the “fold change (FC)” value amounted to 6.73 in data set [7] and 5.37 in data set [11]. Further, in data set [4], the viability at 24 h, up to 100 µM was 100%. The result in data set [8], in data set [10], in data set [13], in data set [14], in [16] and in [17] was Active. In addition, the outcome in [18], in [20], in data set [22] and in data set [23] was Active. The outcome in data set [9], in [15] and in data set [21] was inactive.

Broadly, the IC50 is the concentration at which inhibition is half-maximal.
